From patent US20100292205A1, “Pyrimidone Compounds As GSK-3 Inhibitors” (PFIZER INC., priority 2006, published 2010) come the findings set out here.

As a reminder, the inhibition is the relative decrease from the control value, in per cent. A word on the IC50: it is the concentration at which inhibition is half-maximal.

For one experiment, the target named is T1, Recombinant human GSK3β (Homo sapiens, UniProt P49841).
T1 construct: His-tag; made in house; host or cells: Sf9 insect cells / baculovirus
T1 sequence (P49841 whole entry): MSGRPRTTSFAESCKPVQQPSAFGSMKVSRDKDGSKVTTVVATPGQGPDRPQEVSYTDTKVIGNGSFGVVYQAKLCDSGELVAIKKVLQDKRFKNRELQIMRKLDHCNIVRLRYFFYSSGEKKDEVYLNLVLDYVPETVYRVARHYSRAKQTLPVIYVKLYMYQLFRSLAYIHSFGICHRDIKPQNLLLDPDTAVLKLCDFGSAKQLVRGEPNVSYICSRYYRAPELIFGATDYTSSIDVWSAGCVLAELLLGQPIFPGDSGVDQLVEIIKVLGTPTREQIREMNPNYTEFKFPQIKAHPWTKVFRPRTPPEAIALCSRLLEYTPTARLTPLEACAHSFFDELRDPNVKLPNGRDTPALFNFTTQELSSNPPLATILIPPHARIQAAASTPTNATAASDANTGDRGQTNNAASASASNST
The experiment in a line: GSK-3β (Glycogen Synthase Kinase) cell free enzyme assay. It is filed as biochemical. The settings on record: 1 μM; Examples 157-199. Here is the method:
Assay Protocol for GSK-3β (Glycogen Synthase Kinase) in a Cell Free Enzyme Assay
Recombinant human GSK3β was expressed in SF9/Baculo virus cells. His-tag protein was purified by affinity chromatography to a Ni-NTA Superflow column. Enzyme activity was assayed as the incorporation of [33P] from the gamma phosphate of [33P]ATP (PerkinElmer) into biotinylated peptide substrate bio-LC-S-R-H-S-S-P-H-Q-pS-E-D-E-E-E-OH (Anaspec). Reactions were carried out in a buffer containing 8 mM MOPS (pH 7.0), 10 mM Magnesium Acetate, 0.2 mM EDTA, 1 mM DTT and 2 uM cold ATP. The 33P-ATP was added for 0.025 uCi/well (120 uL) and the final concentration of substrate was 1.0 uM. Enzyme was preincubated with test agent for 30 minutes at room temperature followed by initiation of the reaction by the addition of substrate mix. Incubations were carried out at RT for 60 min. Reactions were stopped by addition of 0.66 volume of buffer containing: 12.5 mM EDTA, 0.25% Triton-X 100, 125 uM ATP, and 6.2 mg/ml streptavidin coated SPA beads (Amersham) in PBS without Ca or Mg. Radioactivity associated with the beads was quantified by scintillation counting of CPM in a Trilux counter (PerkinElmer).
Examples 42 to 60 were prepared using the analogous procedure described to prepare Example 41, substituting the appropriate starting material (Examples 1 to 35) and coupling with the appropriate acid. The assay protocol used is the percent inhibition at 1 μM for GSK-3β in the cell free enzyme assay described above.
On to `CN(c1nc(-c2ccncc2)cc(=O)n1C)C1CCCN(S(=O)(=O)c2ccccc2)CC1` (stereo not drawn) [Example 182, 3-Methyl-2-{methyl[1-(phenylsulfonyl)azepan-4-yl]amino}-6-pyridin-4-ylpyrimidin-4(3H)-one], for which the “Percent inhibition at 1 μM” value turned out to be 96%.

Staying with this experiment, now noted: 1 μM; Examples 157-199; read-out: Percent inhibition at 1 μM.
On to `CN(c1nc(-c2ccncc2)cc(=O)n1C)C1CCCN(S(C)(=O)=O)CC1` (stereo not drawn) [Example 159, 3-Methyl-2-{methyl[1-(methylsulfonyl)azepan-4-yl]amino}-6-pyridin-4-ylpyrimidin-4(3H)-one], for which the inhibition at 1 µM was determined as 100%.

As to `Cn1c(N2CC[C@@H]3CN(S(=O)(=O)c4ccccc4)C[C@@H]32)nc(-c2ccncc2)cc1=O` [Example 172, 3-Methyl-2-[(3a,R6,aR)-5-(phenylsulfonyl)hexahydro-pyrrolo[34-b]pyrrol-1(2H)-yl]-6-pyridin-4-ylpyrimidin-4(3H)-one], the inhibition at 1 µM was determined as 81%.

Regarding `Cn1c(N2CC[C@@H]3CN(S(=O)(=O)Cc4ccccc4)C[C@@H]32)nc(-c2ccncc2)cc1=O` [Example 193, 2-[(3a,R6,aR)-5-(Benzylsulfonyl)hexahydro-pyrrolo[34-b]pyrrol-1(2H)-yl]-3-methyl-6-pyridin-4-ylpyrimidin-4(3H)-one], the inhibition at 1 µM was determined as 80%.

Consider `Cn1c(NCC2CN(S(=O)(=O)c3ccccc3)C2)nc(-c2ccncc2)cc1=O` [Example 190, 3-Methyl-2-({[1-(phenylsulfonyl)azetidin-3-yl]methyl}amino)-6-pyridin-4-ylpyrimidin-4(3H)-one], for which the inhibition at 1 µM was 35%.

As to `Cn1c(N[C@H]2[C@@H]3CN(S(=O)(=O)c4ccccc4)C[C@@H]32)nc(-c2ccncc2)cc1=O` [Example 177, 3-Methyl-2-{[(1R,5S,6s)-3-(phenylsulfonyl)-3-azabicyclo[3.1.0]hex-6-yl]amino}-6-pyridin-4-ylpyrimidin-4(3H)-one], the inhibition at 1 µM came to 97%.

In the case of `CN(c1nc(-c2ccncc2)cc(=O)n1C)[C@@H]1CC[C@H]2N(S(C)(=O)=O)CC[C@@]2(C)C1` [Example 162, 3-Methyl-2-{methyl[(3a,S5,R7,aR)-3a-methyl-1-(methylsulfonyl)octahydro-1H-indo-5-yl]amino}-6-pyridin-4-ylpyrimidin-4(3H)-one], the inhibition at 1 µM is 84%.

The experiment is the same for the next values; noted with them: 1 μM; Examples 201-221; read-out: Percent inhibition at 1 μM.
Take `COC(=O)N1CC[C@@]2(C)C[C@H](N(C)c3nc(-c4ccncc4)cc(=O)n3C)CC[C@@H]12` [Example 216, Methyl (3a,S5,R7,aR)-3a-methyl-5-[methyl(1-methyl-6-oxo-4-pyridin-4-yl-16-dihydropyrimidin-2-yl)amino]octahydro-1H-indole-1-carboxylate]: the inhibition at 1 µM turned out to be 88%.

For `COC(=O)N1C[C@H]2CCN(c3nc(-c4ccncc4)cc(=O)n3C)[C@H]2C1` [Example 203, Methyl (3a,R6,aR)-1-(1-methyl-6-oxo-4-pyridin-4-yl-16-dihydropyrimidin-2-yl)hexahydropyrrolo[34-b]pyrrole-5(1H)-carboxylate], the inhibition at 1 µM came out at 32%.

The same experiment, now with this note: 1 μM; Examples 236-262; read-out: Percent inhibition at 1 μM.
Consider `CCN(c1nc(-c2ccncc2)cc(=O)n1C)C1CCN(C)C1` (stereo not drawn) [Example 244, 2-[ethyl(1-Methylpyrrolidin-3-yl)amino]-3-methyl-6-pyridin-4-ylpyrimidin-4(3H)-one], for which the inhibition at 1 µM was determined as 60%.

`Cn1c(NC2CCCCN(Cc3ccccc3)C2)nc(-c2ccncc2)cc1=O` (stereo not drawn) [Example 252, 2-[(1-Benzylazepan-3-yl)amino]-3-methyl-6-pyridin-4-ylpyrimidin-4(3H)-one]: the inhibition at 1 µM is 74%.

On to `Cn1c(N[C@@H]2CN(Cc3ccccc3)C[C@@H]2F)nc(-c2ccncc2)cc1=O` [Example 253, 2-{[(3R,4S)-1-Benzyl-4-fluoropyrrolidin-3-yl]amino}-3-methyl-6-pyridin-4-ylpyrimidin-4(3H)-one], for which the inhibition at 1 µM worked out at 91%.

The experiment is the same for the next values; noted with them: cell free enzyme assay; Examples 1-35.
For `Cn1c(NC[C@H]2CCN(C(=O)OC(C)(C)C)C2)nc(-c2ccncc2)cc1=O` [Example 14, tert-butyl (3R)-3-{[(1-Methyl-6-oxo-4-pyridin-4-yl-1,6-dihydropyrimidin-2-yl)amino]methyl} pyrrolidine-1-carboxylate], the concentration for half-maximal inhibition (IC50) is 74 nM.

Take `CCN(C[C@@H]1CCCN1C(=O)OC(C)(C)C)c1nc(-c2ccncc2)cc(=O)n1C` [Example 4, tert-butyl (2S)-2-{[Ethyl(1-methyl-6-oxo-4-pyridin-4-yl-1,6-dihydropyrimidin-2-yl)amino]methyl} pyrrolidine-1-carboxylate]: the IC50 was 4.2 nM.

As to `CN(c1nc(-c2ccncc2)cc(=O)n1C)C1CCN(C(=O)OC(C)(C)C)C1` (stereo not drawn) [Example 11, tert-butyl 3-[Methyl(1-methyl-6-oxo-4-pyridin-4-yl-1,6-dihydropyrimidin-2-yl)amino]pyrrolidine-1-carboxylate], the IC50 amounted to 17.7 nM.

Staying with this experiment, now noted: cell free enzyme assay; Examples 62-155.
On to `CC(=O)O[C@@H](C)C(=O)N1C[C@@H]2[C@H](C1)[C@H]2N(C)c1nc(-c2ccncc2F)cc(=O)n1C` [Example 119, (1S)-2-[(1R,5S,6R)-6-{[4-(3-Fluoropyridin-4-yl)-1-methyl-6-oxo-1,6-dihydropyrimidin-2-yl](methyl)amino}-3-azabicyclo[3.1.0]hex-3-yl]-1-methyl-2-oxoethyl acetate], for which the IC50 came out at 32.9 nM.

For `Cn1c(NC[C@@H]2CCCN2C(=O)c2ccccc2)nc(-c2ccncc2)cc1=O` [Example 75, 2-({[(2S)-1-Benzoylpyrrolidin-2-yl]methyl}amino)-3-methyl-6-pyridin-4-ylpyrimidin-4(3H)-one], the IC50 amounted to 183 nM.

As for `Cn1c(N[C@H]2CN(C(=O)Cc3ccccc3)C[C@@H]2F)nc(-c2ccncc2)cc1=O` [Example 83, 2-{[(3S,4S)-4-Fluoro-1-(phenylacetyl)pyrrolidin-3-yl]amino}-3-methyl-6-pyridin-4-ylpyrimidin-4(3H)-one], the IC50 stood at 39 nM.

For `CCCC(=O)N1C[C@@H]2[C@H](C1)[C@H]2N(C)c1nc(-c2ccncc2F)cc(=O)n1C` [Example 138, 2-{[(1R,5S,6s)-3-Butyryl-3-azabicyclo[3.1.0]hex-6-yl](methyl)amino}-6-(3-fluoropyridin-4-yl)-3-methylpyrimidin-4(3H)-one], the IC50 was 13.8 nM.

In the case of `Cn1c(NC2CN(C(=O)c3ccccc3)C2)nc(-c2ccncc2)cc1=O` [Example 64, 2-[(1-Benzoylazetidin-3-yl)amino]-3-methyl-6-pyridin-4-ylpyrimidin-4(3H)-one], the IC50 was determined as 367 nM.

Regarding `Cn1c(NC2CCCN(C(=O)c3ccccc3)CC2)nc(-c2ccncc2)cc1=O` (stereo not drawn) [Example 63, 2-[(1-Benzoylazepan-4-yl)amino]-3-methyl-6-pyridin-4-ylpyrimidin-4(3H)-one], the IC50 came out at 12.4 nM.

Staying with this experiment, now noted: cell free enzyme assay; Examples 222-234.
`CCOC(=O)N1CCC[C@@H](N(C)c2nc(-c3ccncn3)cc(=O)n2C)C1` [Example 230, Ethyl (3R)-3-[methyl(1-methyl-6-oxo-1,6-dihydro-4,4′-bipyrimidin-2-yl)amino]piperidine-1-carboxylate]: the IC50 is 0.95 nM.

Consider `CCN(C[C@H]1CCCN1C(=O)OC)c1nc(-c2ccncn2)cc(=O)n1C` [Example 226, Methyl (2R)-2-{[ethyl(1-methyl-6-oxo-1,6-dihydro-4,4′-bipyrimidin-2-yl)amino]methyl}pyrrolidine-1-carboxylate], for which the concentration for half-maximal inhibition (IC50) was 1 nM.

The same experiment, now with this note: cell free enzyme assay; Examples 265-291.
As to `CC(C)n1nnnc1N1C[C@@H]2[C@H](C1)[C@H]2N(C)c1nc(-c2ccncc2F)cc(=O)n1C` [Example 282, 6-(3-Fluoropyridin-4-yl)-2-{[(1R,5S,6s)-3-(1-isopropyl-1H-tetrazol-5-yl)-3-azabicyclo[3.1.0]hex-6-yl](methyl)amino}-3-methylpyrimidin-4(3H)-one], the IC50 is 3.25 nM.

Regarding `Cc1nc(N2C[C@@H]3[C@H](C2)[C@H]3N(C)c2nc(-c3ccncc3F)cc(=O)n2C)n2nc(-c3ccccc3Cl)c(I)c2n1` [Example 285, 2-[{(1R,5S,6s)-3-[7-(2-Chlorophenyl)-8-iodo-2-methylpyrazolo[1,5-a][1,3,5]triazin-4-yl]-3-azabicyclo[3.1.0]hex-6-yl}(methyl)amino]-6-(3-fluoropyridin-4-yl)-3-methylpyrimidin-4(3H)-one], the IC50 is 5670 nM.

On to `CN(c1nc(-c2ccncc2F)cc(=O)n1C)[C@H]1[C@@H]2CN(c3nc4cc(F)ccc4[nH]3)C[C@@H]21` [Example 288, 2-{[(1R,5S,6s)-3-(5-Fluoro-1H-benzimidazol-2-yl)-3-azabicyclo[3.1.0]hex-6-yl](methyl)amino}-6-(3-fluoropyridin-4-yl)-3-methylpyrimidin-4(3H)-one], for which the 50% inhibitory concentration (IC50) is 116 nM.

Regarding `COc1ccc2nc(N3C[C@@H]4[C@H](C3)[C@H]4N(C)c3nc(-c4ccncc4F)cc(=O)n3C)sc2c1` [Example 289, 6-(3-Fluoropyridin-4-yl)-2-{[(1R,5S,6s)-3-(6-methoxy-1,3-benzothiazol-2-yl)-3-azabicyclo[3.1.0]hex-6-yl](methyl)amino}-3-methylpyrimidin-4(3H)-one], the IC50 was 25.1 nM.
